Assays:
Assay type in all cases: cell-based
[1] = tested on: ENL-dependent MV4; 11 cells; experiment: Cell viability (CellTiter-Glo), MV4; 11 cells
Protocol: (§1) MV4; 11 (FIG. 13A), MOLM13 (FIG. 13B) and Jurkat (FIG. 13C) cells were seeded at 2×10^5 cells/mL density and treated with DMSO or indicated compounds 0.5, 1, 2 and 4 μM for 72 h. Cell viability was measured using CellTiter-Glo reagent (Promega) and relative cell viability was calculated by normalization to DMSO samples.
(§2) ENL-dependent MV4; 11 cells were seeded at 2×10^5 cells/mL density and treated with DMSO or the indicated compounds at 0, 1.25, 2.5, 5 and 10 μM for 72 h. Cell viability was measured using CellTiter-Glo reagent (Promega) and relative cell viability was calculated by normalization to DMSO samples.
as §2, with “11 and ENL-independent Jurkat” for “11”, “or” for “or the”, “10 nM, 100 nM, 1 μM” for “0, 1.25, 2.5, 5”, “3 days (A) or 6 days (B).” for “72 h.”
(§3) MV4; 11 or MOLM13 cells were seeded at 0.2×10^6 cells/mL density. Cells were treated with DMSO or ENL degraders at indicated concentrations. Each treatment was done in triplicates. After 72 h treatment, 100 μL of cell suspension from each treatment was mixed with 25 μL of CellTiter-Glo reagent (Promega) and incubated for 10 min before the luminescence signals were detected on a plate reader.

ENL target genes = experiment: RT-qPCR of ENL target genes in MOLM13 cells
Protocol: MOLM13 cells were treated with LQ076-122 (FIG. 14A) and LQ081-108 (FIG. 14B) at 0.5, 1, 2, 4, and 8 μM for 24 h. […] RT-qPCR analysis was performed to detect the mRNA levels of selected ENL target genes.
Total RNA was extracted using the RNeasy Plus kit (Qiagen) and reverse-transcribed using the iScript cDNA Synthesis kit (Bio-Rad). RT-qPCR was performed using the Power SYBR Green PCR Master Mix (Applied Biosystems) on the CFX96 Real-Time PCR system (Bio-Rad). Gene expressions were calculated following normalization to 18s rRNA amounts using the comparative cycle threshold (Ct) method.

ENL [2] = biological target: T1, ENL (Homo sapiens, UniProt Q03111); experiment: Western blot of ENL protein levels in MV4; 11 cells
T1 construct: Cells were lysed and expression of endogenous ENL was assessed by Western blot analysis; host or cells: MV4;11
T1 sequence (Q03111 1-559): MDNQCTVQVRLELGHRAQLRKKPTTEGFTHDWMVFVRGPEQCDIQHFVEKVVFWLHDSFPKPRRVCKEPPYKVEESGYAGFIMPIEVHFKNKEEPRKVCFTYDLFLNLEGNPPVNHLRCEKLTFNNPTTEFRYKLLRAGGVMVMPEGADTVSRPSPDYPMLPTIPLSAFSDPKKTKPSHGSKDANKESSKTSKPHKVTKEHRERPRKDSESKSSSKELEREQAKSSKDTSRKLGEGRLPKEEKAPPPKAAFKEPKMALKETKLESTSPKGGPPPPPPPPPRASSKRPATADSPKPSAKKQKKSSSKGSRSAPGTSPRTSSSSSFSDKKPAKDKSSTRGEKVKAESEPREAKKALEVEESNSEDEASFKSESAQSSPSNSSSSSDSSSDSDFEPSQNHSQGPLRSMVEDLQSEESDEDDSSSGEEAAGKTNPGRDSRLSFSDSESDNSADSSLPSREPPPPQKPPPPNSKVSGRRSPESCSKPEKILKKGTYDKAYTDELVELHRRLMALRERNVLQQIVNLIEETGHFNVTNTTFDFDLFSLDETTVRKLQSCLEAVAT
Protocol: MV4; 11 cells were treated with DMSO or the indicated compounds (the same panel of ENL degraders as shown in FIG. 4) at 1 μM and 10 μM for 24 h. Cells were lysed and expression of ENL was assessed by Western blot analysis.
DMSO treated cells were used as control.
MV4; 11 cells were treated with LQ076-122, or LQ081-107 at 0.3, 1, 3, 10, and 30 μM for 24 h. DMSO treated cells were used as control. Cells were lysed and expression of ENL and GAS41 was assessed by Western analysis.
MV4; 11 cells were treated with DMSO or the indicated compounds at 1 μM and 10 μM for 6 h. Cells were lysed and expression of endogenous ENL was assessed by Western blot analysis.
Cells were treated with 1 μM of ENL degrader with or without 1 μM proteasome inhibitor MG132 for 6 h.
(§4) ENL degraders were dissolved in DMSO. DMSO with no degraders was used as the control. 1×10^6 leukemia cells were seeded in 5 mL medium. For prescreening of compounds, each test compound was added to the medium at 1 μM and 10 μM. Cells were collected after 24 h treatment. For the concentration-dependent treatment, candidate compounds were added to the medium at a series of concentration as indicated in figures. Cells were collected after 24 h treatment. For the time-course treatment, candidate compounds were added to the medium at a final concentration of 4 μM (MV4; 11 cells) or 8 μM (MOLM13 cells). Cells were collected at the indicated timepoints (in hours: 12, 16, 20, 24 and 36 h).
(§5) After ENL degrader treatment, cells were collected, lysed, and total cell lysates were used for Western blot. The following primary antibodies were used: ENL (Cell Signaling Technology), GAS41 (Santa Cruz), GAPDH (Santa Cruz), β-actin (Sigma). Blots were detected using HRP-conjugated secondary antibodies.

[3] = tested on: ENL-dependent MOLM13 leukemia cells; experiment: Cell viability (CellTiter-Glo), MOLM13 cells; conditions: MOLM13 cells, 0.5, 1, 2 and 4 μM for 72 h
Protocol: as §1, §3

[4] = tested on: ENL-independent Jurkat cells; experiment: Cell viability (CellTiter-Glo), Jurkat cells
Protocol: as §1
as §2, with “11 and ENL-independent Jurkat” for “11”, “or” for “or the”, “10 nM, 100 nM, 1 μM” for “0, 1.25, 2.5, 5”, “3 days (A) or 6 days (B).” for “72 h.”

ENL [5] = biological target: T1, ENL; experiment: Western blot of ENL protein levels in MOLM13 cells
Protocol: MOLM13 cells were treated with LQ076-122 or LQ081-108 at 0, 0.25, 0.5, 1, 1.5, 2, 2.5, 3, 4 and 8 μM for 24 h.
MOLM13 cells were treated with DMSO or 8 μM of LQ076-122 for 12, 16, 20, 24 and 36 h.
MV4; 11, MOLM13 and Jurkat cells were treated with LQ108-69, LQ108-71, LQ108-72, LQ126-62 and LQ126-63 at 0, 1 nM, 10 nM, 100 nM, 1 μM, and 10 μM doses for 6 h. DMSO was used as negative control.
as §4, §5

ENL [6] = biological target: T1, ENL; experiment: Western blot of ENL protein levels in Jurkat cells
Description: […] DMSO was used as negative control.
as §5

[7] = 11 cells, 0.5, 1, 2 and 4 μM for 72 h
[8] = 11 cells, 0.3, 1, 3 and 10 μM for 12 and 24 h
[9] = Jurkat cells, 0.5, 1, 2 and 4 μM for 72 h

SMILES | suppression of cell growth (relative cell viability) [1, 7] | reduction of ENL protein levels (ENL [2]; [8]) | suppression of cell growth (relative cell viability) [3] | suppression of cell growth (relative cell viability) [4, 9] | other results
Cc1ncsc1-c1ccc([C@H](C)NC(=O)[C@H]2C[C@H](O)CN2C(=O)[C@@H](NC(=O)CCCCCCCCCCNC(=O)c2ccc(C(=O)Nc3ccc4[nH]c(CN5CCC[C@@H]5C)nc4c3)cc2)C(C)(C)C)cc1 [LQ081-106] | did not significantly affect cell growth | did not affect ENL protein levels | did not significantly affect cell growth | did not significantly affect cell growth | ENL target gene expression (mRNA levels) (ENL target genes; MOLM13 cells, 8 μM for 24 h): did not dramatically affect these genes
Cc1ncsc1-c1ccc(CNC(=O)[C@H]2C[C@H](O)CN2C(=O)[C@@H](NC(=O)CCCCCCCCCCNC(=O)c2ccc(C(=O)Nc3ccc4[nH]c(CN5CCC[C@@H]5C)nc4c3)cc2)C(C)(C)C)cc1 [LQ081-107] |  | did not affect ENL protein levels |  |  | ENL target gene expression (mRNA levels) (ENL target genes; MOLM13 cells, 8 μM for 24 h): did not dramatically affect these genes
Cc1ncsc1-c1ccc([C@H](C)NC(=O)[C@@H]2C[C@@H](O)CN2C(=O)[C@@H](NC(=O)CCCCCCCCCCNC(=O)c2ccc(C(=O)Nc3ccc4[nH]c(CN5CCC[C@@H]5C)nc4c3)cc2)C(C)(C)C)cc1 [LQ081-108, N^1-(11-(((S)-1-((2S,4R)-4-hydroxy-2-(((S)-1-(4-(4-methylthiazol-5-yl)phenyl)ethyl)carbamoyl)pyrrolidin-1-yl)-3,3-dimethyl-1-oxobutan-2-yl)amino)-11-oxoundecyl)-N^4-(2-(((S)-2-methylpyrrolidin-1-yl)methyl)-1H-benzo[d]imidazol-5-yl)terephthalamide] | selectively suppressed cell growth | reduced ENL protein levels in a concentration- and time-dependent manner | selectively suppressed cell growth |  | ENL target gene expression (mRNA levels) (ENL target genes; MOLM13 cells, 0.5, 1, 2, 4 and 8 μM for 24 h): reduced ENL target gene expression in a concentration-dependent manner; reduction of ENL protein levels (ENL [2]; 11 cells, 0-8 μM for 24 h): reduced ENL protein levels in a concentration-dependent manner; reduction of ENL protein levels (ENL [2]; 11 cells, 10 μM, 24 h): effective in reducing ENL protein levels; reduction of ENL protein levels (ENL [5]; 0-8 μM for 24 h): reduced ENL protein levels in a concentration-dependent manner
Cc1ncsc1-c1ccc([C@H](C)NC(=O)[C@H]2C[C@H](O)CN2C(=O)[C@@H](NC(=O)CCCCCCCCCCCNC(=O)c2ccc(C(=O)Nc3ccc4[nH]c(CN5CCC[C@@H]5C)nc4c3)cc2)C(C)(C)C)cc1 [LQ081-158] | did not significantly affect cell growth |  | did not significantly affect cell growth | did not significantly affect cell growth | 
Cc1ncsc1-c1ccc([C@H](C)NC(=O)[C@@H]2C[C@@H](OCc3ccccc3)CN2C(=O)[C@@H](NC(=O)CCCCCCCCCCNC(=O)c2ccc(C(=O)Nc3ccc4[nH]c(CN5CCC[C@@H]5C)nc4c3)cc2)C(C)(C)C)cc1 [LQ108-141] | did not significantly affect cell growth |  | did not significantly affect cell growth | did not significantly affect cell growth | 
Cc1ncsc1-c1ccc([C@H](C)NC(=O)C2C[C@@H](OCc3ccccc3)CN2C(=O)[C@@H](NC(=O)CCCCCCCCCCCNC(=O)c2ccc(C(=O)Nc3ccc4[nH]c(CN5CCC[C@@H]5C)nc4c3)cc2)C(C)(C)C)cc1 (stereo partly drawn) [LQ108-142] | did not significantly affect cell growth |  | did not significantly affect cell growth | did not significantly affect cell growth | 
Cc1ncsc1-c1ccc(CNC(=O)[C@@H]2C[C@@H](O)CN2C(=O)[C@@H](NC(=O)CCCCCCCCCCNC(=O)c2ccc3c(c2)[C@H](NC(=O)c2cc(-c4ccc(C(=O)N(C)C)c(O)c4)on2)CC3)C(C)(C)C)cc1 [LQ126-63, 5-(4-(dimethylcarbamoyl)-3-hydroxyphenyl)-N—((R)-6-((11-(((S)-1-((2S,4R)-4-hydroxy-2-((4-(4-methylthiazol-5-yl)benzyl)carbamoyl)pyrrolidin-1-yl)-3,3-dimethyl-1-oxobutan-2-yl)amino)-11-oxoundecyl)carbamoyl)-2,3-dihydro-1H-inden-1-yl)isoxazole-3-carboxamide] |  |  |  |  | suppression of cell growth (relative cell viability) ([1]; 11 cells, 100 nM dose, 3 days and 6 days): strongly suppressed MV4; 11 cell growth; suppression of cell growth (relative cell viability) ([1]; 11 cells, 1.25, 2.5, 5 and 10 μM for 72 h): significantly suppressed MV4; 11 cell growth at low micromolar concentration; reduction of ENL protein levels (ENL [2]; 11 cells, 1 nM to 10 μM for 6 h): reduced ENL protein levels in a concentration-dependent manner; effect of proteasome inhibitor MG132 on the ENL degradation induced by the degrader (ENL [2]; 11 cells, 1 μM degrader with or without 1 μM MG132 for 6 h): partially blocks the ENL degradation; ENL protein level after long treatment (ENL [2]; 11 cells, 1 μM for 48 and 72 h): maintained the ENL protein at low levels; reduction of ENL protein levels (ENL [6]; 1 nM to 10 μM for 6 h): reduced ENL protein levels in a concentration-dependent manner; ENL protein level after long treatment (ENL [6]; 1 μM for 48 and 72 h): maintained the ENL protein at low levels; reduction of ENL protein levels (ENL [5]; 1 nM to 10 μM for 6 h): reduced ENL protein levels in a concentration-dependent manner; ENL protein level after long treatment (ENL [5]; 1 μM for 48 and 72 h): maintained the ENL protein at low levels; suppression of cell growth (relative cell viability) ([4]; Jurkat cells, 10 nM to 10 μM, 3 days and 6 days): did not affect the growth of ENL-independent Jurkat cells
